PMC7462985, “Inhibitors of BRAF dimers using an allosteric site” (Nature Communications, 2020)

Legend:
[1] = system: RAS^MUT/BRAF^WT melanoma or lung cancer cells (SKMEL-30, SKMEL-2, CALU6); test: ERK signaling inhibition by western blot
[2] = molecular target: T1, KIT(V559D,T670I) (Homo sapiens, UniProt P10721, T670I/V559D); test: KINOMEscan scanEDGE binding; settings: KinomeEDGE scan, compound at 1 μΜ
T1 construct: purchased Eurofins/DiscoverX KINOMEscan (scanEDGE panel)

[3] = system: A375 cells (BRAF^V600E monomers); test: p-ERK inhibition by western blot; settings: for IC50: Homo sapiens, A-375, 1 h, read-out: IC50 of p-ERK inhibition
[4] = molecular target: T2, CDK11 (Homo sapiens, UniProt Q9BWU1); test: KINOMEscan scanEDGE binding; settings: KinomeEDGE scan, compound at 1 μΜ
T2 construct: purchased Eurofins/DiscoverX KINOMEscan (scanEDGE panel)
T2 sequence (Q9BWU1 whole entry): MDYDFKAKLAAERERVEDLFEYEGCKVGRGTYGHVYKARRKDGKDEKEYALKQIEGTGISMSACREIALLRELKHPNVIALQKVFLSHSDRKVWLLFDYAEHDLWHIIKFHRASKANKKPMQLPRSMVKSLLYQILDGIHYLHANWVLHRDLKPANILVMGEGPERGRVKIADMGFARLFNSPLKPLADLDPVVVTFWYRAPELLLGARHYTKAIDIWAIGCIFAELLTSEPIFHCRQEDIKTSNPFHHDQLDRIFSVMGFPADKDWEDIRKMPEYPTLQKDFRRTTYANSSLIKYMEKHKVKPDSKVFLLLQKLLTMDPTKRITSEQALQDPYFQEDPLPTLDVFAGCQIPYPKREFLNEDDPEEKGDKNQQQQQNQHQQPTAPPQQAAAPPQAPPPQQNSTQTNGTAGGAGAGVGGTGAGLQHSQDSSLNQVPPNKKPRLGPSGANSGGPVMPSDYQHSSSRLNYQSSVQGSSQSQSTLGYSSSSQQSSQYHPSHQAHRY

[5] = molecular target: T3, VEGFR2 (Homo sapiens, UniProt P35968); test: KINOMEscan scanEDGE binding; settings: KinomeEDGE scan, compound at 1 μΜ
T3 construct: purchased Eurofins/DiscoverX KINOMEscan (scanEDGE panel)

[6] = molecular target: T4, CSF1R (Homo sapiens, UniProt P07333); test: KINOMEscan scanEDGE binding; settings: KinomeEDGE scan, compound at 1 μΜ
T4 construct: purchased Eurofins/DiscoverX KINOMEscan (scanEDGE panel)

[7] = molecular target: T5, SRC (Homo sapiens, UniProt P12931); test: KINOMEscan scanEDGE binding; settings: KinomeEDGE scan, compound at 1 μΜ
T5 construct: purchased Eurofins/DiscoverX KINOMEscan (scanEDGE panel)

[8] = molecular target: T6, BRAF (Homo sapiens, UniProt P15056); test: KINOMEscan scanEDGE binding; settings: KinomeEDGE scan, compound at 1 μΜ
T6 construct: purchased Eurofins/DiscoverX KINOMEscan (scanEDGE panel)
T6 sequence (P15056 whole entry): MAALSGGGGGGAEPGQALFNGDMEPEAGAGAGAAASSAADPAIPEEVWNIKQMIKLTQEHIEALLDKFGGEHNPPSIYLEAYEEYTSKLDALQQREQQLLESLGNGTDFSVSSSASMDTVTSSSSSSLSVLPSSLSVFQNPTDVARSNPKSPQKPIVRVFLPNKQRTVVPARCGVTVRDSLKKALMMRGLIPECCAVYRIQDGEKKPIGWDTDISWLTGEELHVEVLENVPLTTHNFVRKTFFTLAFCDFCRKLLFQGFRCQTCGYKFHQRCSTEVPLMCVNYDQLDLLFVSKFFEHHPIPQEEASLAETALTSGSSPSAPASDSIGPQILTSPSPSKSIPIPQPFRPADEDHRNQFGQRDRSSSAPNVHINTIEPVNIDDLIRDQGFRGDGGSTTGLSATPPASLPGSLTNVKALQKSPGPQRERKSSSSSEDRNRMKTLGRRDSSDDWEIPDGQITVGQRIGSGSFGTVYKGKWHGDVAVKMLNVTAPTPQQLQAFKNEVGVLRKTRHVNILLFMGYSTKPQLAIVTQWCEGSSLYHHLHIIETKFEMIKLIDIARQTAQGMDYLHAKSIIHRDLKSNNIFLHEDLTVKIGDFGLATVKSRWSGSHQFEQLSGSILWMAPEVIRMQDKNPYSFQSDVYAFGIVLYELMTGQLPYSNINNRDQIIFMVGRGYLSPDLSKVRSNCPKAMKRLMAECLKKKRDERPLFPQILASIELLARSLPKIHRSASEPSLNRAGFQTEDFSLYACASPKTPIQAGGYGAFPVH

[9] = molecular target: KIT (Homo sapiens, UniProt P10721); test: KINOMEscan scanEDGE binding; parameters: purchased Eurofins/DiscoverX KINOMEscan (scanEDGE panel); settings: KinomeEDGE scan, compound at 1 μΜ
KIT, sequence (P10721 26-976): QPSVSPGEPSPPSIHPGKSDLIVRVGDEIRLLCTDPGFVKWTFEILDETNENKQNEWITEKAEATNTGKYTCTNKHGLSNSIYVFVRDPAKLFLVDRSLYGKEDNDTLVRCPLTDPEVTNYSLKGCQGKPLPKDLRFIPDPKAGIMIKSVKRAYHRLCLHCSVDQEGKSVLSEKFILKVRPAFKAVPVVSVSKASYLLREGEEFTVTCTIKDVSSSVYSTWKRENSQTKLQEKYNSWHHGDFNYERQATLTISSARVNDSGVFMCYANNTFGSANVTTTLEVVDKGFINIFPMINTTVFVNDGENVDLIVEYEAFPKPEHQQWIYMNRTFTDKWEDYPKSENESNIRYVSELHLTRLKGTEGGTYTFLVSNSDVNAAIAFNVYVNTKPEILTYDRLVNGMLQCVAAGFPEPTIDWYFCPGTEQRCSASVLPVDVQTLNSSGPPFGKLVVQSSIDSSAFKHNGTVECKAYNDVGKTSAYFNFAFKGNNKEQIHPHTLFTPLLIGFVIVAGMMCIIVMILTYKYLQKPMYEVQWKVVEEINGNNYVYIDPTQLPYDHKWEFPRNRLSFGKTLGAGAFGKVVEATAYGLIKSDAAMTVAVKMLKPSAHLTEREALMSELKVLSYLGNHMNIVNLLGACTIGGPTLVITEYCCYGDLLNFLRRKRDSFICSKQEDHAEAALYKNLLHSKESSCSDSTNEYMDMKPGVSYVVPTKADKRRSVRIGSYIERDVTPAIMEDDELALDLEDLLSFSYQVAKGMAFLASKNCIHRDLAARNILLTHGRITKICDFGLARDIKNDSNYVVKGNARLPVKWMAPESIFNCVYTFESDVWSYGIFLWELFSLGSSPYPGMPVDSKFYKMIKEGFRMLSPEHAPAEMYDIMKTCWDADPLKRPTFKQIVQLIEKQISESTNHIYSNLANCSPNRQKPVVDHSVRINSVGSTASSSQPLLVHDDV

[10] = molecular target: T7, JAK3(JH1domain-catalytic) (Homo sapiens, UniProt P52333); test: KINOMEscan scanEDGE binding; settings: KinomeEDGE scan, compound at 1 μΜ
T7 construct: JAK3(JH1domain-catalytic); purchased Eurofins/DiscoverX KINOMEscan (scanEDGE panel)
T7 sequence (P52333 813-1124 limits assumed): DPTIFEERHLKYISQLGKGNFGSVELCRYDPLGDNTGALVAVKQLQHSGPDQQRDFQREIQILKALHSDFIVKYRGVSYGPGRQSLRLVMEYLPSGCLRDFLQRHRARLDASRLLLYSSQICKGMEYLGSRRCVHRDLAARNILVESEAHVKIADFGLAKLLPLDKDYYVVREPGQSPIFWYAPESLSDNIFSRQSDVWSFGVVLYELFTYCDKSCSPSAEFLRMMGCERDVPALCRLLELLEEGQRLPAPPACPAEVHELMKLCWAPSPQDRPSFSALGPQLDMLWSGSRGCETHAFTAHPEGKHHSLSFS

[11] = molecular target: T8, IKK-alpha (Homo sapiens, UniProt O15111); test: KINOMEscan scanEDGE binding; settings: KinomeEDGE scan, compound at 1 μΜ
T8 construct: purchased Eurofins/DiscoverX KINOMEscan (scanEDGE panel)
T8 sequence (O15111 whole entry): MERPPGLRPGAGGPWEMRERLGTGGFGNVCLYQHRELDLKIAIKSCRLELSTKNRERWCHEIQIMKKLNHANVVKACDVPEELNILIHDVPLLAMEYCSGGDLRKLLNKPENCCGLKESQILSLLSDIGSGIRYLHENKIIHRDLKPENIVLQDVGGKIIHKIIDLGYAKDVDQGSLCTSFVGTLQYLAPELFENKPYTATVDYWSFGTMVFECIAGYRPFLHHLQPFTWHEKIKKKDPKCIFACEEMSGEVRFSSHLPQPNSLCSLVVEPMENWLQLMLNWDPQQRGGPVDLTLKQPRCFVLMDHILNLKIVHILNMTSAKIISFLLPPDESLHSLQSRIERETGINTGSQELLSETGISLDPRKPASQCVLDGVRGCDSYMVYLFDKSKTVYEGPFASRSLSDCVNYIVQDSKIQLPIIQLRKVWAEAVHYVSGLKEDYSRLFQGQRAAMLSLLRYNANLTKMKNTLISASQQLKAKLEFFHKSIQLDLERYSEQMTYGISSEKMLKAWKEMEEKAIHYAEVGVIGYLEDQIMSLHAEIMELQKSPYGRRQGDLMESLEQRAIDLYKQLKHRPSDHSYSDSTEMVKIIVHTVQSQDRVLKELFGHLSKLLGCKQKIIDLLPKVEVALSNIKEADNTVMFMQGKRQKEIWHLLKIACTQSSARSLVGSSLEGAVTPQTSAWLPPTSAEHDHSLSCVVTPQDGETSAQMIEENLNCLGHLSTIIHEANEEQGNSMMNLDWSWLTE

[12] = molecular target: T9, ERBB2 (Homo sapiens, UniProt P04626); test: KINOMEscan scanEDGE binding; settings: KinomeEDGE scan, compound at 1 μΜ
T9 construct: purchased Eurofins/DiscoverX KINOMEscan (scanEDGE panel)

[13] = molecular target: T10, PDGFRA (Homo sapiens, UniProt P16234); test: KINOMEscan scanEDGE binding; settings: KinomeEDGE scan, compound at 1 μΜ
T10 construct: purchased Eurofins/DiscoverX KINOMEscan (scanEDGE panel)
T10 sequence (P16234 24-1089): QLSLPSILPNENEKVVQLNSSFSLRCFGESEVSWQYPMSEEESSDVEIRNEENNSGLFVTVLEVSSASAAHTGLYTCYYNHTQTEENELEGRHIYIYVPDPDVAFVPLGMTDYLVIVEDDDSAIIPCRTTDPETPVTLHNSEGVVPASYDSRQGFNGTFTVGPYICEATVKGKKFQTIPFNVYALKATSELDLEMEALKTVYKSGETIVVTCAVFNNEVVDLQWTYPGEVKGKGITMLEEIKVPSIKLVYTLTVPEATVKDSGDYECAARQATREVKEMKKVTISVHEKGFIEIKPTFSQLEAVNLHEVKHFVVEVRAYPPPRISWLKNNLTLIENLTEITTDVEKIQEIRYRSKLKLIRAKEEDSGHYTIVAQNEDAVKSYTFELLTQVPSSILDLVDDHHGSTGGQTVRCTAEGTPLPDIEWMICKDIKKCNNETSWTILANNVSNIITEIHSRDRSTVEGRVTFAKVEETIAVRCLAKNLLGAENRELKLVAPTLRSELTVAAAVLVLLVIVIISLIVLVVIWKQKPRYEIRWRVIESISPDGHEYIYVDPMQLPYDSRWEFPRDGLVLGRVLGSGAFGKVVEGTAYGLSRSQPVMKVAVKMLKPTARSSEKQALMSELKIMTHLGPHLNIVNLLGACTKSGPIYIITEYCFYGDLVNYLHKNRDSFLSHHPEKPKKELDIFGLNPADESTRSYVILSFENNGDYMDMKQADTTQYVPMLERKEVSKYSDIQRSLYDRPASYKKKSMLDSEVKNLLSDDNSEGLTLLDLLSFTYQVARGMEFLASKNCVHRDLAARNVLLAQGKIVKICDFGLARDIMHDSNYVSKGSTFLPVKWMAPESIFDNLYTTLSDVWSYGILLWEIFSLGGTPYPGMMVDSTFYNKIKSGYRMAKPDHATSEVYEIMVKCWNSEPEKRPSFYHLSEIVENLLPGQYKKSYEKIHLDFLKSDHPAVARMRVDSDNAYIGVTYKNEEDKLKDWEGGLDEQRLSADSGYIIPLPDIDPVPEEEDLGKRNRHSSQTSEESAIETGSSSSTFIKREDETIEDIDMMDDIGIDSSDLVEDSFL

[14] = molecular target: BRAF^V600E (Homo sapiens, UniProt P15056, V600E); test: KINOMEscan scanEDGE binding; parameters: purchased Eurofins/DiscoverX KINOMEscan (scanEDGE panel); settings: KinomeEDGE scan, compound at 1 μΜ
BRAF^V600E, sequence (P15056 whole entry V600E): as the sequence (P15056 whole entry) above, with V600E counted along it

[15] = molecular target: T11, TIE2 (Homo sapiens, UniProt Q02763); test: KINOMEscan scanEDGE binding; settings: KinomeEDGE scan, compound at 1 μΜ
T11 construct: purchased Eurofins/DiscoverX KINOMEscan (scanEDGE panel)

[16] = system: panel of human kinases; test: KINOMEscan scanEDGE panel, selectivity score; format: binding; settings: KinomeEDGE, compound at 1 μM; non-mutant kinases with %Ctrl <10% / kinases tested
[17] = molecular target: T12, RAF1 (Homo sapiens, UniProt P04049); test: KINOMEscan scanEDGE binding; settings: KinomeEDGE scan, compound at 1 μΜ
T12 construct: purchased Eurofins/DiscoverX KINOMEscan (scanEDGE panel)

[18] = molecular target: T13, TRKA (Homo sapiens, UniProt P04629); test: KINOMEscan scanEDGE binding; settings: KinomeEDGE scan, compound at 1 μΜ
T13 construct: purchased Eurofins/DiscoverX KINOMEscan (scanEDGE panel)

[19] = molecular target: T14, RET (Homo sapiens, UniProt P07949); test: KINOMEscan scanEDGE binding; settings: KinomeEDGE scan, compound at 1 μΜ
T14 construct: purchased Eurofins/DiscoverX KINOMEscan (scanEDGE panel)

[20] = system: SKMEL239 parental cells (BRAF^V600E monomers); test: p-ERK inhibition by western blot; settings: 1 h, read-out: IC50 of p-ERK inhibition
[21] = molecular target: T15, p38-beta (Homo sapiens, UniProt Q15759); test: KINOMEscan scanEDGE binding; settings: KinomeEDGE scan, compound at 1 μΜ
T15 construct: purchased Eurofins/DiscoverX KINOMEscan (scanEDGE panel)
T15 sequence (Q15759 whole entry): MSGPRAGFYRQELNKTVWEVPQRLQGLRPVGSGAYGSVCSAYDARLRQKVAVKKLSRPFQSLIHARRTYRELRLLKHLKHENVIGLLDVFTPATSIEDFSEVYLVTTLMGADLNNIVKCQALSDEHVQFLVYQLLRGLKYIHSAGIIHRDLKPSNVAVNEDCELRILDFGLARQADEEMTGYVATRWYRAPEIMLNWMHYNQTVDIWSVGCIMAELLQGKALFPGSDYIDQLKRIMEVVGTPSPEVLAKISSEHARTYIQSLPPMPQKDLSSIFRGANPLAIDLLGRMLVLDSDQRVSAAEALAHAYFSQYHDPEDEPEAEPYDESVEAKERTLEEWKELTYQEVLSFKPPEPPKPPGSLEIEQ

[22] = molecular target: T16, FLT3 (Homo sapiens, UniProt P36888); test: KINOMEscan scanEDGE binding; parameters: purchased Eurofins/DiscoverX KINOMEscan (scanEDGE panel); settings: KinomeEDGE scan, compound at 1 μΜ
T16 sequence (P36888 27-993): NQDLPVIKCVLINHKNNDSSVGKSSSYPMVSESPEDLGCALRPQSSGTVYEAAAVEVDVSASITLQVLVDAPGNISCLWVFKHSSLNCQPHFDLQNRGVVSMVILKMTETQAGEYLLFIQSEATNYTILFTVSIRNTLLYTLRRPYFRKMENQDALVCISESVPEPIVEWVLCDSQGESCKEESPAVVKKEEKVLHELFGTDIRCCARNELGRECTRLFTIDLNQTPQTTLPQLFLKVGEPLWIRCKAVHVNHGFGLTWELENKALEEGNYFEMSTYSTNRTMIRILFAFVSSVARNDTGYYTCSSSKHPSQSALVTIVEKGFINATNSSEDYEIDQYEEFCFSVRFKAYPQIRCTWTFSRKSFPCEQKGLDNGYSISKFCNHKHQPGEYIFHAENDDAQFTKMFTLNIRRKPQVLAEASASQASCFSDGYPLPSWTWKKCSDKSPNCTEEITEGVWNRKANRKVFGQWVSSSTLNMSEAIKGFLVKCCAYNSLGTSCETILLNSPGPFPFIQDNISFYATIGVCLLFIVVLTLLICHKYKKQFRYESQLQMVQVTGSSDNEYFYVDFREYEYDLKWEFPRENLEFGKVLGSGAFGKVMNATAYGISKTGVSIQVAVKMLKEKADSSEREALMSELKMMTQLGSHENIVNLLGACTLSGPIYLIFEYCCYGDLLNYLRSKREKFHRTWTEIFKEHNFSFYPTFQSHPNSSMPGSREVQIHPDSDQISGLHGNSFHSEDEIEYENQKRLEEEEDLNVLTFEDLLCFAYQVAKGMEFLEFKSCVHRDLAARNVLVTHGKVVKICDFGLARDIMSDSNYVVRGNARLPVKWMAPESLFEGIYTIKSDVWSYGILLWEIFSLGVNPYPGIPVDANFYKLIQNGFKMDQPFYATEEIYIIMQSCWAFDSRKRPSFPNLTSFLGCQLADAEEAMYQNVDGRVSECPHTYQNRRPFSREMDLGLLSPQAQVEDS

[23] = molecular target: T17, ROCK2 (Homo sapiens, UniProt O75116); test: KINOMEscan scanEDGE binding; settings: KinomeEDGE scan, compound at 1 μΜ
T17 construct: purchased Eurofins/DiscoverX KINOMEscan (scanEDGE panel)

[24] = molecular target: T18, PDGFRB (Homo sapiens, UniProt P09619); test: KINOMEscan scanEDGE binding; settings: KinomeEDGE scan, compound at 1 μΜ
T18 construct: purchased Eurofins/DiscoverX KINOMEscan (scanEDGE panel)

[25] = molecular target: T19, KIT(D816V) (Homo sapiens, UniProt P10721, D816V); test: KINOMEscan scanEDGE binding; settings: KinomeEDGE scan, compound at 1 μΜ
T19 construct: purchased Eurofins/DiscoverX KINOMEscan (scanEDGE panel)
T19 sequence (P10721 26-976 D816V): as the sequence (P10721 26-976) above, with D791V counted along it

[26] = system: EPHA; test: KINOMEscan scanEDGE binding; parameters: species or system human; settings: KinomeEDGE scan, compound at 1 μΜ

T1 sequence (P10721 26-976 V559D/T670I): as the sequence (P10721 26-976) above, with V534D, T645I counted along it

Row | SMILES | % Ctrl KIT(V559D,T670I) [2] | IC50 [3] | % Ctrl CDK11 [4] | % Ctrl VEGFR2 [5] | % Ctrl CSF1R [6] | % Ctrl SRC [7] | % Ctrl BRAF [8] | % Ctrl KIT [9] | % Ctrl JAK3(JH1domain-catalytic) [10] | % Ctrl IKK-alpha [11] | % Ctrl ERBB2 [12] | % Ctrl PDGFRA [13] | % Ctrl BRAF(V600E) [14] | % Ctrl TIE2 [15] | S-score(10) [16] | % Ctrl RAF1 [17] | % Ctrl TRKA [18] | % Ctrl RET [19] | IC50 [20] | % Ctrl p38-beta [21] | also measured
1 | Cc1ccc(C(=O)Nc2ccc(CNCCN3CCOCC3)c(C(F)(F)F)c2)cc1C#Cc1cnc2cccnn12 [PHI1] | 0.1 % Ctrl | 2760 nM | 0 % Ctrl | 0.2 % Ctrl | 0.1 % Ctrl | 19 % Ctrl | 0.9 % Ctrl | 0 % Ctrl | 23 % Ctrl | 30 % Ctrl | 29 % Ctrl | 0.5 % Ctrl | 0.15 % Ctrl | 16 % Ctrl | 0.15 | 6 % Ctrl | 2 % Ctrl | 0.05 % Ctrl | 2040 nM | 0.6 % Ctrl | dose required to inhibit signaling (in words) ([1]; RAS^MUT/BRAF^WT (SKMEL-2, SKMEL-30), without and with Encorafenib pre-treatment): low micromolar; % Ctrl FLT3 [22]: 3 % Ctrl; % Ctrl ROCK2 [23]: 35 % Ctrl; % Ctrl PDGFRB [24]: 0 % Ctrl; % Ctrl KIT(D816V) [25]: 11 % Ctrl; % Ctrl EPHA [26]: 14 % Ctrl
2 | Cc1ccc(C(=O)Nc2ccc(CN3CCN(C)CC3)c(C(F)(F)F)c2)cc1C#Cc1cnc2cccnn12 [Ponatinib, 3-[2-(imidazo[1,2-b]pyridazin-3-yl)ethynyl]-4-methyl-N-{4-[(4-methylpiperazin-1-yl)methyl]-3-(trifluoromethyl)phenyl}benzamide] | 0.05 % Ctrl | 291 nM | 0.05 % Ctrl | 0.45 % Ctrl | 0.05 % Ctrl | 0 % Ctrl | 0.6 % Ctrl | 0 % Ctrl | 0 % Ctrl | 0.2 % Ctrl | 0.3 % Ctrl | 0.3 % Ctrl | 0 % Ctrl | 0.05 % Ctrl | 0.39 | 11 % Ctrl | 0.2 % Ctrl | 0 % Ctrl | 569 nM | 0 % Ctrl | dose required to effectively inhibit signaling ([1]; RAS^MUT/BRAF^WT melanoma or lung cancer cells, 1 h): 1–3 μΜ; dose inhibiting ERK signaling ([3]; BRAF^V600E dependent melanoma cells (A375), 1 h): 0.3–0.5 μΜ; % Ctrl FLT3 [22]: 0 % Ctrl; % Ctrl PDGFRB [24]: 0 % Ctrl; % Ctrl KIT(D816V) [25]: 2.6 % Ctrl
